Assay: Thioflavine T stress test of heat treated liraglutide preparations
Format: physicochemical
Method: The physical stability of the liraglutide preparations was evaluated by the use of a florescence method; the Thioflavine T-test where the histological thiazole dye Thioflavine T (ThT) was used as an indicator of fibril formation. By the use of Thioflavine T-test it was possible to determine the presence of fibrils in the different formulations. The method was based on the fluorescent characteristics of ThT.
ThT was used in a stress test applying the different formulations in microtiter plates with ThT at 35° C. and shaken with 350 rpm until the formulations were fibrillated. Graphs of the fluorescence intensity (FI) as a function of time (sec) were obtained.

physical stability by increasing the temperature of heat treatment (from 22 to 50-80° C. at pH 9-10): significantly improved
physical stability as temperature of heat treatment was increased (heat treatment 22 to 80° C.): significantly improved
SMILES: CCCCCCCCCCCCCCCC(=O)N[C@@H](CCC(=O)NCCCC[C@H](NC(=O)[C@H](C)NC(=O)[C@H](C)NC(=O)[C@H](CCC(N)=O)NC(=O)CNC(=O)[C@H](CCC(=O)O)NC(=O)[C@H](CC(C)C)NC(=O)[C@H](Cc1ccc(O)cc1)NC(=O)[C@H](CO)NC(=O)[C@H](CO)NC(=O)[C@@H](NC(=O)[C@H](CC(=O)O)NC(=O)[C@H](CO)NC(=O)[C@@H](NC(=O)[C@H](Cc1ccccc1)NC(=O)[C@@H](NC(=O)CNC(=O)[C@H](CCC(=O)O)NC(=O)[C@H](C)NC(=O)[C@@H](N)Cc1cnc[nH]1)[C@@H](C)O)[C@@H](C)O)C(C)C)C(=O)N[C@@H](CCC(=O)O)C(=O)N[C@@H](Cc1ccccc1)C(=O)N[C@H](C(=O)N[C@@H](C)C(=O)N[C@@H](Cc1c[nH]c2ccccc12)C(=O)N[C@@H](CC(C)C)C(=O)N[C@H](C(=O)N[C@@H](CCCNC(=N)N)C(=O)NCC(=O)N[C@@H](CCCNC(=N)N)C(=O)NCC(=O)O)C(C)C)[C@@H](C)CC)C(=O)O [liraglutide, Arg^34, Lys^26(N^ε-(γ-Glu(N^α-hexadecanoyl)))-GLP-1(7-37)]
physical stability, time of heat treatment (60 and 80° C., 120 minutes in comparison to 1 minute of heat treatment): improve the physical stability significantly
physical stability, time of heat treatment (pH 9-10, all temperatures, 15 to 20 minutes compared to 1 minute of heat treatment): improve the physical stability significantly

From patent publication US8748376B2, “Stable formulations of peptides” (Novo Nordisk A/S, priority 2004, dated 2014)
